Reference: US5112815A, “9α-hydroxy-3-oxo-4,24(25)-stigmastadien-26-oic acid derivatives, a process for preparing same and pharmaceutical compositions containing same” (Richer Gedeon Vegyeszet, priority 1989, dated 1992)

What was measured:
[1] = system: cholesterol biosynthesis (rat liver homogenate); assay: Inhibition of cholesterol biosynthesis: incorporation of radiolabelled acetic acid into cholesterol in rat liver homogenate; assay type: biochemical, Hannover Wistar male rats; details: 2 h at 37° C.
Text: The cholesterol-biosynthesis-inhibiting effect of the compounds according to the invention is illustrated by the example of 9 α-hydroxy-3-oxo-4,24(25)-stigmastadien-26-oic acid (I, wherein M stands for hydrogen). The inhibitory effect of this compound was compared with that of 3β-hydroxy-5α-cholest-8(14)-en-15-one (Colestolone) by the method of A. Endo and co-workers [Eur. J. Biochem. 77, 31 (1977); Biochem. Biophys. Acta 486, 71 (1977)] studying in rat liver homogenate the incorporation of radiolabelled acetic acid into cholesterol.
Hannover Wistar male rats weighing 50-60 g were used for the experiment. Before the experiments the animals were fed for a week with rat chew enriched with 5% cholestyramine, in a reversed light cycle (light from 4 p.m. to 4 a.m., and dark from 4 a.m. to 4 p.m.). The food and water were available ad libitum.
The animals were decapitated on the day of the experiment, Livers were immersed in ice cold Krebs/Ringer bicarbonate buffer (pH 7.4) and cut into small pieces. Using a tissue homogenizer in a gentle mode of operation we prepared a crude liver homogenate of which a portion equivalent to 100 mg of wet liver was weighed into glass-stoppered tubes. The operations were carried out under constant cooling. The incubation mixture included the liver homogenate, the Krebs/Ringer bicarbonate buffer, the sodium-(1-^14 C)acetate (supplied by IZINTA; specific activity: 14.86 MBq/mg) and the (^3 H)cholesterol oleate (supplied by Du Pont; specific activity: 3067 GBq/mmole). The steroids inhibiting cholesterol biosynthesis were added to the incubation mixture in an alcoholic solution containing albumin, as described by G. J. Schroepfer and co-workers [J. Biol. Chem. 24, 8975 (1977)]. The final volume of the incubation mixture was 2.0 ml. Incubation went on for 2 hours in a water bath of 37° C., then 2 ml of alcohol containing 15% (w/v) of KOH were added to the mixture, which was then kept at 70°-75° C. for further 2 hours. The lipids were extracted from the alkaline mixture by petroleum ether. After evaporation of the solvent in nitrogen stream the dry residue was dissolved in a mixture of acetone and ethanol, then the cholesterol was precipitated by a solution of digitonin. The precipitate was centrifuged and dissolved in scintillation cocktail. The activity was measured for 5 minutes using a Hitachi scintillation spectrometer.

serum cholesterol = details: several animal species and humans, literature; cited from earlier work

SMILES	Inhibition, % ([1]; concentration 2.5 μM)	Inhibition, % ([1]; concentration 10.0 μM)	serum cholesterol-lowering effect (serum cholesterol)
CC(C)CCC[C@@H](C)[C@H]1CC(=O)C2=C3CC[C@H]4C[C@@H](O)CC[C@]4(C)[C@H]3CC[C@@]21C [3β-Hydroxy-5α-cholest-8(14)-en-15-one, 3β-hydroxy-5α-cholest-8(14)-en-15-one]	16.6%	55.0%	significant serum cholesterol-lowering effect
CCC(CC[C@@H](C)[C@H]1CC[C@H]2[C@@H]3CCC4=CC(=O)CC[C@]4(C)[C@@]3(O)CC[C@]12C)=C(C)C(=O)O [9α-hydroxy-3-oxo-4,24(25)-stigmastadien-26-oic acid]	65.3%	86.3%	–
